Organism: Rattus norvegicus
Assay: Open TG-GATES - Regimen: Daily Repeat
Format: toxicity, organism-based, Sprague-Dawley
Parameters: regimen Daily Repeat, gender Male, age 6 weeks
Details: in vivo, po, 0 mg/kg, […], route gavage, dose level Control; for KIDNEY_L / KIDNEY_R / KIDNEY_TOTAL: tissue Kidney; for LIVER: tissue Liver; for A/G / ALP / ALT / AST / BUN / CRE / Ca / Cl / DBIL / GLC / IP / K / LDH / Na / PL / RALB / TBIL / TC / TG / TP / gamma-GTP: tissue Plasma

Cc1nnc2n1-c1ccc(Cl)cc1C(c1ccccc1Cl)=NC2 [TRIAZOLAM]
Lym (tissue Blood, time 28 day): 79.6% | MCH (tissue Blood, time 28 day): 18.8 pg | MCHC (tissue Blood, time 28 day): 33.7% | MCV (tissue Blood, time 28 day): 55.8 fL | Mono (tissue Blood, time 28 day): 2% | Neu (tissue Blood, time 28 day): 15.8% | PT (tissue Blood, time 28 day): 13.4 s | Plat (tissue Blood, time 28 day): 106.8 x10_4/uL | RBC (tissue Blood, time 28 day): 812.8 x10_4/ul | Ret (tissue Blood, time 28 day): 2.1% | WBC (tissue Blood, time 28 day): 76.6 x10_2/uL | KIDNEY_L (time 7 day): 1.1 g | KIDNEY_R (time 7 day): 1.1 g | KIDNEY_TOTAL (time 7 day): 2.2 g | KIDNEY_L (time 14 day): 1.2 g | KIDNEY_R (time 14 day): 1.2 g | KIDNEY_TOTAL (time 14 day): 2.4 g | KIDNEY_L (time 28 day): 1.4 g | KIDNEY_R (time 28 day): 1.4 g | KIDNEY_TOTAL (time 28 day): 2.7 g | LIVER (time 7 day): 11.8 g | LIVER (time 14 day): 13.3 g | LIVER (time 28 day): 15.3 g | A/G (time 7 day): 0.9 | ALP (time 7 day): 1652.6 IU/L | ALT (time 7 day): 45.4 IU/L | AST (time 7 day): 75 IU/L | BUN (time 7 day): 16.8 mg/dL | CRE (time 7 day): 0.2 mg/dL | Ca (time 7 day): 10.9 mg/dL | Cl (time 7 day): 105.8 meq/L | DBIL (time 7 day): 0.01 mg/dL | GLC (time 7 day): 188.2 mg/dL | IP (time 7 day): 7.6 mg/dL | K (time 7 day): 4.3 meq/L | LDH (time 7 day): 73.6 IU/L | Na (time 7 day): 141.8 meq/L | PL (time 7 day): 161.6 mg/dL | RALB (time 7 day): 2.6 g/dL | TBIL (time 7 day): 0.042 mg/dL | TC (time 7 day): 85 mg/dL | TG (time 7 day): 122.8 mg/dL | TP (time 7 day): 5.6 g/dL | gamma-GTP (time 7 day): 1 IU/L | A/G (time 14 day): 0.8 | ALP (time 14 day): 1514.4 IU/L | ALT (time 14 day): 46 IU/L | AST (time 14 day): 79.6 IU/L | BUN (time 14 day): 15.4 mg/dL | CRE (time 14 day): 0.2 mg/dL | Ca (time 14 day): 10.9 mg/dL | Cl (time 14 day): 104.4 meq/L | DBIL (time 14 day): 0.012 mg/dL | GLC (time 14 day): 172.4 mg/dL | IP (time 14 day): 7.1 mg/dL | K (time 14 day): 3.9 meq/L | LDH (time 14 day): 90 IU/L | Na (time 14 day): 143 meq/L | PL (time 14 day): 167.4 mg/dL | RALB (time 14 day): 2.6 g/dL | TBIL (time 14 day): 0.044 mg/dL | TC (time 14 day): 82.4 mg/dL | TG (time 14 day): 135.6 mg/dL | TP (time 14 day): 5.7 g/dL | gamma-GTP (time 14 day): 1.4 IU/L | A/G (time 28 day): 0.8 | ALP (time 28 day): 1373.8 IU/L | ALT (time 28 day): 36.6 IU/L | AST (time 28 day): 62 IU/L | BUN (time 28 day): 15.4 mg/dL | CRE (time 28 day): 0.2 mg/dL | Ca (time 28 day): 10.7 mg/dL | Cl (time 28 day): 105.8 meq/L | DBIL (time 28 day): 0.008 mg/dL | GLC (time 28 day): 185.8 mg/dL | IP (time 28 day): 6.3 mg/dL | K (time 28 day): 4.2 meq/L | LDH (time 28 day): 57 IU/L | Na (time 28 day): 144 meq/L | PL (time 28 day): 158.4 mg/dL | RALB (time 28 day): 2.7 g/dL | TBIL (time 28 day): 0.056 mg/dL | TC (time 28 day): 72.8 mg/dL | TG (time 28 day): 159.8 mg/dL | TP (time 28 day): 6.1 g/dL | gamma-GTP (time 28 day): 1 IU/L
